Test system: Human stomach cancer cells 4-1st
Assay: Combination of Compound 1 and trastuzumab emtansine (in vivo), subcutaneous tumor in nude mice
Conditions: for T/C (%): Day 15; for BWC (%) Day 15 Mean: mouse, in vivo, po
Description: Human stomach cancer cells 4-1st were obtained as fragment tumor from the Central Institute for Experimental Animals. Tumor was excised approximately one month after subcutaneous transplantation and passage in a nude mouse (BALB/cAJcl-nu/nu, CLEA Japan, Inc.), and prepared into a fragment of approximately 2 mm square. A transplantation needle was packed with one fragment and subcutaneously inserted from around the right most distal rib of a nude mouse. After entrance to the right back, the inner cylinder was pushed to eject and transplant the tumor. Electronic calipers were used in tumor size measurement, and the major axis and the minor axis of the tumor of each mouse were measured by sandwiching the tumor between the measuring surfaces of the electronic calipers (Days 0, 4, 8, 11 and 15). A tumor volume (TV) was calculated from the major axis and the minor axis. A relative tumor volume (RTV) and a rate of change in relative tumor volume (T/C) were calculated from the calculated tumor volume. TV, RTV, and T/C were calculated according to the following expressions. Tumor volume TV (mm^3)=(Major axis, mm)×(Minor axis, mm)×(Minor axis, mm)/2 Relative tumor volume RTV=(TV on the day of measurement)/(TV on the day of grouping) Rate of change in relative tumor volume T/C (%)=(Average RTV of an administration group)/(Average RTV of a control group)×100
An electronic balance for animals was used in body weight measurement. A rate of change in body weight on day n (BWCn) was calculated from the body weight on day n (BWn) according to the following expression. Rate of change in body weight BWCn (%)=(BWn−BW0)/BW0×100
Nude mice whose TV reached 100 to 300 mm^3 were selected, and six animals were assigned to each group by the equal number method (MiSTAT (ver. 2.0)) such that average TV was equalized among groups.
The presence or absence of an effect of combined use and toxicity were determined from tumor sizes and body weights on the day of grouping (Day 0) and the day of evaluation (Day 15). During the administration period, the body weights were measured every day for the calculation of the amount of a dosing solution.

[1] = Compound 1 7.5 mg/kg/day p.o. Days 1-14
[2] = Compound 1 15 mg/kg/day p.o. Days 1-14

C=CC(=O)N1CCC[C@@H](n2nc(C(=O)Nc3ccc(CC(=O)N(C)C)c(C)c3C)c3c(N)ncnc32)C1 [Compound 1, (R)-1-(1-acryloylpiperidin-3-yl)-4-amino-N-(4-(2-(dimethylamino)-2-oxoethyl)-2,3-dimethylphenyl)-1H-pyrazolo[3,4-d]pyrimidine-3-carboxamide]
RTV Day 15 Mean ± SD [1]: 5.92 ± 0.38
T/C (%) [1]: 51.6%
RTV Day 15 Mean ± SD [2]: 3.58 ± 0.41
T/C (%) [2]: 31.2%
BWC (%) Day 15 Mean (7.5 mg/kg/day): 7.41%
BWC (%) Day 15 Mean (15 mg/kg/day): 3.63%
